Where two headings read alike, the source gives them in different places.
Experiments:
Format in all cases: biochemical
PDE1A = biological target: T1, PDE1A (Homo sapiens, UniProt P54750); test: Phosphodiesterase enzyme screening assay, PDE1A; details: ratio of IC50 values, value greater than 1 indicates greater selectivity for PDE9A2
T1 construct: purchased Reaction Biology Corporation, Malvern, Pa
Procedure, shortened: (§1)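 Read-out was electrophoretic mobility-shift separation on chip of fluorescent cyclic nucleotide from 5′-AMP/5′-GMP, with inhibition or enhancement judged against control wells (quadruplicate means). Reactions lasted 1 h at RT in HEPES pH 7.5 buffer with MgCl2, DTT and Brij plus 4.0 μM cGMP substrate, then were halted with EDTA stop buffer.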

PDE9A2 = biological target: T2, PDE9A2 (Homo sapiens, UniProt O76083); test: Phosphodiesterase enzyme screening assay, PDE9A2; details: read-out: Band (PDE9A2 IC50)
T2 construct: purchased Reaction Biology Corporation, Malvern, Pa
Procedure, shortened: as §1

PDE1B = biological target: T3, PDE1B (Homo sapiens, UniProt Q01064); test: Phosphodiesterase enzyme screening assay, PDE1B; details: ratio of IC50 values, value greater than 1 indicates greater selectivity for PDE9A2
T3 construct: purchased Reaction Biology Corporation, Malvern, Pa
Procedure, shortened: as §1

[1] = Table 1, 10 concentrations, 4.0 μM cGMP substrate, 1 hour at R.T.

T1 sequence (P54750 whole entry): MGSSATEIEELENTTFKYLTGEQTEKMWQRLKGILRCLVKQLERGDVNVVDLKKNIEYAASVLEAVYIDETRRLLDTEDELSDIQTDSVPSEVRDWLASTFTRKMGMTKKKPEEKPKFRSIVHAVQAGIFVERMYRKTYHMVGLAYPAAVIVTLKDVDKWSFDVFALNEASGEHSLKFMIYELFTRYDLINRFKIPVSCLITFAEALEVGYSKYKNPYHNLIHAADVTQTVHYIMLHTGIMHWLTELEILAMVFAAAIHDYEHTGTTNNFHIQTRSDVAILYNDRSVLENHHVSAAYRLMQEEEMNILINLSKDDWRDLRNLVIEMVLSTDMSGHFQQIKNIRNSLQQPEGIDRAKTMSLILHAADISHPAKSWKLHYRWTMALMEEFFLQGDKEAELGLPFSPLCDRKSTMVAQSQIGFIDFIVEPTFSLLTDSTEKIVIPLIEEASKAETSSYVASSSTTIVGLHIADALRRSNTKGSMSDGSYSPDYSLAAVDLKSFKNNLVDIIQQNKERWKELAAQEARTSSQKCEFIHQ
T3 sequence (Q01064 whole entry): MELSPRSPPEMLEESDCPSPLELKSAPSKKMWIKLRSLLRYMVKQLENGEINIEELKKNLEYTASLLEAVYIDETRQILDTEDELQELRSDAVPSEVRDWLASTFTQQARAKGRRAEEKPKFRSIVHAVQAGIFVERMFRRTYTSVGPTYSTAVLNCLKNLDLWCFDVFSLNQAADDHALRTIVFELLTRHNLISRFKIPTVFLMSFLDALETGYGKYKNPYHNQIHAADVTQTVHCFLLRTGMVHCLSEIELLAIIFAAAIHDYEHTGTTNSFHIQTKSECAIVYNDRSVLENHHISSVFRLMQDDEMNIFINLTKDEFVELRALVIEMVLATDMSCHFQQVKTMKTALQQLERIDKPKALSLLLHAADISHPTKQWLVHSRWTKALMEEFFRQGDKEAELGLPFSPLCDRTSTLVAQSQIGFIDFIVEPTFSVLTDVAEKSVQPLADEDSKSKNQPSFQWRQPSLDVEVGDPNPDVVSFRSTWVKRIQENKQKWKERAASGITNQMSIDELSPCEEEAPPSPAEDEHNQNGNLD
T2 sequence (O76083 1-533 isoform O76083-2): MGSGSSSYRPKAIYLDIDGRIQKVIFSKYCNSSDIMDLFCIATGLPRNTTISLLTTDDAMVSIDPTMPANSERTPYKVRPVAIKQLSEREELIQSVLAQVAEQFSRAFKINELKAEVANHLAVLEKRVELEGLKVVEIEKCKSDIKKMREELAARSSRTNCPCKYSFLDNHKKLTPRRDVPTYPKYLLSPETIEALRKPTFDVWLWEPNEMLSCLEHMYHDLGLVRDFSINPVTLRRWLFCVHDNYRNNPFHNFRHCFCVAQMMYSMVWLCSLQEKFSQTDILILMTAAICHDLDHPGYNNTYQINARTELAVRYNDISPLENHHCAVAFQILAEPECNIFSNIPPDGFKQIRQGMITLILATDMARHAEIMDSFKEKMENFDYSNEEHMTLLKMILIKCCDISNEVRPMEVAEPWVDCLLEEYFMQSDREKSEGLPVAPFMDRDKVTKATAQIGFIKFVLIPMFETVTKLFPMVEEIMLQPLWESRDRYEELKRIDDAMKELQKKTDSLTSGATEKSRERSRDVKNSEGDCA

| Structure (SMILES) | PDE1A selectivity (versus PDE9A2) (PDE1A; Table 1) | IC50 (PDE9A2; [1]) | PDE1B selectivity (versus PDE9A2) (PDE1B; Table 1) | PDE1A selectivity (versus PDE9A2) (PDE1A) | IC50 (PDE9A2) | PDE1B selectivity (versus PDE9A2) (PDE1B) |
| --- | --- | --- | --- | --- | --- | --- |
| CC1CN(C(=O)c2ccc(C#N)cc2)CC1c1nn2c(C3CCOCC3)ncc2c(=O)[nH]1 (single isomer, unassigned; (-)) [(−)-4-((3,4-trans)-3-methyl-4-(4-oxo-7-(tetrahydro-2H-pyran-4-yl)-3,4-dihydroimidazo[5,1-f][1,2,4]triazin-2-yl)pyrrolidine-1-carbonyl)benzonitrile] | 14 | < 1000 nM | 21 | – | – | – |
| CC1CN(Cc2ccc(C#N)cc2)CC1c1nn2c(C3CCOCC3)ncc2c(=O)[nH]1 (single isomer, unassigned; (-)) [(−)-4-(((3,4-trans)-3-methyl-4-(4-oxo-7-(tetrahydro-2H-pyran-4-yl)-3,4-dihydroimidazo[5,1-f][1,2,4]triazin-2-yl)pyrrolidin-1-yl)methyl)benzonitrile] | 640 | < 1000 nM | 1445 | – | – | – |
| CC1CN(CC2CCN(C(=O)OC(C)(C)C)CC2)CC1c1nn2c(C3CCOCC3)ncc2c(=O)[nH]1 (single isomer, unassigned; (-)) [(−)-tert-butyl (−)-4-(((3,4-trans)-3-methyl-4-(4-oxo-7-(tetrahydro-2H-pyran-4-yl)-3,4-dihydroimidazo[5,1-f][1,2,4]triazin-2-yl)pyrrolidin-1-yl)methyl)piperidine-1-carboxylate] | – | – | – | 129 | < 1000 nM | 262 |

Reference: US9969742B2, “Imidazotriazinone compounds” (Ironwood Pharmaceuticals, Inc., priority 2012, dated 2018)
